In patent US9738610B2, “Indazole derivatives and uses thereof” (Whitehead Institute for Biomedical Research, priority 2012, dated 2017):
Entries after “also recorded” stand apart in the source; their conditions may differ.

Assays:
Aspergillus terreus = Aspergillus terreus susceptibility test (CLSI M38-A2); format: cell-based
Description: Aspergillus terreus (A. terreus) susceptibility testing was performed as described in Clinical Laboratory Standards Institute document […]-A2 (CLSI […]-A2) (CLSI. Reference Method for Broth Dilution Antifungal Susceptibility Testing of Filamentous Fungi; Approved Standard-Second Edition. CLSI, 940 West Valley Road, Suite 1400, Wayne, Pa. 19087-1898 USA, 2003).

[1] = target: cytochrome B of S. cerevisiae resistant to known antifungal agents (Saccharomyces cerevisiae, UniProt P00163, L275F); settings: FIG. 14A curve 3
Description: (§1) Compounds described herein were added to plates in a buffer containing 50 mM Tris-Cl pH 7.3, 10 mM NaN3, 0.01% BSA, and 0.05% Tween-20. Mitochondrial membranes (2-5 μg protein) were added to the buffer, followed by oxidized equine cytochrome C (Sigma) at a final concentration of 50 μM. Reactions were initiated by adding decylubiquinol to a final concentration of 50 μM. Reaction progress was monitored by reading the increase in signal at 550 nm on a Tecan Evo plate reader. […] All measurements were performed in triplicate.

[2] = target: cytochrome B of yeast S. cerevisiae (wild type) (Saccharomyces cerevisiae, UniProt P00163); test: biochemical
human Complex III = target: T1, human Complex III (Homo sapiens, UniProt P00156); test: In vitro inhibition of Complex III, human enzyme; format: biochemical; settings: FIG. 14A curve 2
T1 construct: Mitochondrial membranes were prepared from yeast (Meisinger et al., Methods Mol. Biol. 2006, 313:33-9.) or HEK293 cells; endogenous in cells; host or cells: HEK293 cells (mitochondrial membranes)
Description: as §1

[3] = system: Saccharomyces cerevisiae strain W303-1a; test: In vivo inhibition of fungal respiration (growth on glycerol); format: cell-based; settings: glycerol medium, 48 hours
Description: Saccharomyces cerevisiae (S. cerevisiae) strain W303-1a was grown overnight in Yeast-Peptone-Dextrose media, washed, and diluted into Yeast Nitrogen Base media with 2.5% glycerol containing compounds at a range of dilutions.

C. albicans [4] = test: Candida albicans susceptibility test (CLSI M27-A3); format: cell-based; settings: FIG. 9
Description: Candida albicans susceptibility testing was performed as described in Clinical Laboratory Standards Institute document M27-A3 (CLSI M27-A3) (CLSI. Reference Method for Broth Dilution Antifungal Susceptibility Testing of Yeasts; Approved Standard—Third Edition. CLSI, 940 West Valley Road, Suite 1400, Wayne, Pa. 19087-1898 USA, 2003).

[5] = system: Candida albicans strain SC5314; test: Cytotoxicity to fluconazole-sensitive strain SC5314; format: cell-based; settings: fluconazole alone
[6] = system: Candida albicans strain CaCi-2; test: Cytotoxicity to fluconazole-resistant strain CaCi-2; format: cell-based; settings: fluconazole alone
CaCi-2 = test: MIC of fluconazole against CaCi-2; format: cell-based; settings: Candida albicans; read-out: Minimum inhibitory concentration (MIC) against CaCi-2
Description: (§2) In order to identify non-fungitoxic chemosensitizers (“probes” or “probe compounds”) of C. albicans, compounds from the NIH's Molecular Libraries Small Molecule Repository (MLSMR) (mli.nih.gov/mli/secondary-menu/mlscn/ml-small-molecule-repository/) were evaluated in the screening cascade summarized in FIG. 3. The C. albicans strains used in the primary screen and secondary assay 1 (CaCi-2 and CaCi-8, respectively) are both clinical isolates that partially respond to fluconazole treatment (Redding et al., Clin. Infect. Dis. 1994, 18, 240-242). […] In the primary assay, CaCi-2 cells are exposed to 8 μg/mL fluconazole; this induces a basal level of 60-80% growth inhibition with additional suppression of the trailing growth associated with this particular strain (Redding et al., Clin. Infect. Dis. 1994, 18, 240-242).

CaCi-8 = test: MIC of fluconazole against CaCi-8; format: cell-based; settings: Candida albicans; read-out: Minimum inhibitory concentration (MIC) against CaCi-8
Description: as §2

C. albicans CaCi-2 = test: CaCi-2 growth inhibition in the presence of 8 μg/ml fluconazole (Alamar Blue); format: cell-based, Candida albicans; settings: Candida albicans, CACI2; 8 μg/mL fluconazole alone in the primary assay; read-out: Basal level of growth inhibition of CaCi-2
Description: Fluconazole was obtained from Sequoia Research Products, Ltd. and prepared in a 2 mg/ml stock solution in phosphate buffered saline (PBS). […] PBS (Catalog No. 21-040-CV) without calcium and magnesium was obtained from Cellgro. Penicillin/Streptomycin (Pen/Strep) was obtained from Gibco and prepared 100× in PBS.
RPMI medium (1×) was prepared by dissolving 10.4 g powdered medium in 800 ml water. A buffer of 34.52 g MOPS was added. While stirring, pH was adjusted to 7.0 with 10 N NaOH. Next, 10 ml uridine solution and 50 ml glucose solution were added. The final volume was adjusted to 1000 ml, and filter sterilized.
The following yeast strains were used in this study: C. albicans CaCi-2. Fungal inoculum was prepared as follows: 500 μl of strain was inoculated from cryopreserved stock into a 250-ml shaker flask containing 30 ml growth medium and shaken overnight at 30° C. The optical density (OD 600) of 1 ml fungal culture in a cuvette was read using a standard optical density reader (Eppendorf BioPhotometer Plus), with growth medium as a background blank. The desired volume of fungal inoculums was diluted to desired volume of fungal inoculums according to the following formula: (1/OD measured)×(Desired Final Volume of Inoculum)×0.3=Volume of fungal culture (μl) to add to desired volume of growth medium. When added to media in wells, this yields a calculated starting OD of the fungal inoculum of 0.00015.
Fluconazole stock solution was added to the fungal inoculum to achieve 8 μg/ml. Pen/Strep was added to the media to a 1% concentration (v/v). A Thermo Combi nL was used to dispense 20 μl/well of assay media into all wells. Geldanamycin was dispensed in positive control wells using Thermo Combi nL for a final concentration of 3 μM. Then, 100 nl of test compound was pinned from compound plates into assay plates using a CyBi-Well pin tool. A further 20 μl/well of culture was dispensed into the assay media in all wells. The plates were incubated in a humidified (90% humidity) Liconic incubator at 37° C. without agitation for 48 hours. Alamar Blue was diluted 1:40 in Ca/Mg-free PBS. To all plates, […] of the diluted Alamar Blue was added to the plates to a final dilution factor of 1:200. The plates were incubated for an additional 2 hours. Then, Relative Fluorescence Intensity (RFU) of each well was read on standard plate reader as a measure of relative fungal growth.

C. albicans [7] = settings: cited from earlier work
fungus = settings: read-out: IC50, single-agent antifungal activity; cited from earlier work

COC(=O)Cn1nc(-c2ccccc2)c2ccccc21 [Compound I-3]
Inhibitory activity against A. terreus (Aspergillus terreus): shows inhibitory activity
Inhibitory activity against resistant S. cerevisiae [1]: showed inhibitory activity
IC50 [2]: ~0.6 µM
Inhibition of human Complex III in vitro (human Complex III): active
Inhibitory activity against S. cerevisiae (respiratory growth) [3]: completely inhibits respiratory growth; also recorded: shows inhibitory activity

c1ccc(COc2cccc(-c3nn(Cc4nnco4)c4ccccc34)c2)cc1 [Compound I-52]
Inhibitory activity against A. terreus (Aspergillus terreus): shows inhibitory activity
Inhibition of C. albicans in absence and presence of fluconazole (FCZ) (C. albicans [4]): more active in inhibiting C. albicans in presence of fluconazole (FCZ) than in absence thereof
Inhibitory activity against S. cerevisiae (respiratory growth) [3]: shows inhibitory activity

OC(Cn1cncn1)(Cn1cncn1)c1ccc(F)cc1F [fluconazole, reference compound]
Effect on SC5314 [5]: cytostatic, but not cytotoxic
Effect on CaCi-2 [6]: not cytostatic or cytotoxic
MIC (CaCi-2): 2 mg/L
MIC (CaCi-8): 8 mg/L
inhibition at 8 µg/mL (C. albicans CaCi-2): 60 to 80%

Plagiochin E
Concentration that increased yeast susceptibility to fluconazole (C. albicans [7]): 2.4 µM
IC50 (fungus): 3.8 µM
